Data as given in US20200237711A1, “Compositions for Treating and/or Preventing Cancer” (Boston Biomedical, Inc., priority 2017, published 2020).

What was measured:
[1] = test system: metabolism of 2-acetylnaphtho[2,3-b]furan-4,9-dione in human liver cytosol; test: Screening for an inhibitor of a metabolic enzyme (human liver cytosol, LC-MS/MS); format: biochemical; conditions: test drug 10 μmol/L, substrate 0.5 μmol/L, 37° C., 5 minutes (FIG. 9)
Description: To a reaction solution obtained by dissolving a human liver cytosol (0.1 mg/mL) and NADPH (1 mmol/L) in a phosphate buffer solution, a test drug (10 μmol/L) was added. Then, 2-acetylnaphtho[2,3-b]furan-4,9-dione was added to be 0.5 μmol/L and thereby the reaction was started. After incubation at 37° C. for 5 minutes, 50 nmol/L phenytoin solution, which had been dissolved in 0.1% formic acid-containing acetonitrile, was added and the reaction was terminated. After centrifugation, the resulting supernatant was measured using LC-MS/MS to quantify the residual amount of 2-acetylnaphtho[2,3-b]furan-4,9-dione, and the inhibition intensity of the test drugs was evaluated by comparison with the control group.

A549 cells [2] = test: Intracellular concentration of 2-acetylnaphtho[2,3-b]furan-4,9-dione with a metabolic inhibitor, A549; format: cell-based, human; conditions: 1.0 μmol/L dione with 30 or 100 μmol/L inhibitor, 2 hours (FIG. 11)
Description: (§1) A549 cells or H460 cells were seeded onto a 96-well culture plate (made by Corning Inc.) at 2×10^4/well, and then cultured at 37° C. under 5% carbon dioxide atmosphere in an incubator for 48 hours. After which, they were cultured for 2 hours with 2-acetylnaphtho[2,3-b]furan-4,9-dione in a final concentration of 1.0 μmol/L and in the presence or absence of 30 μmol/L or 100 μmol/L of mefenamic acid or flufenamic acid, and then washed with PBS. After that, 80% methanol was added to each well to obtain a cell lysate. The cell lysate was analyzed using LC-MS/MS to determine the intracellular concentration of 2-acetylnaphtho[2,3-b]furan-4,9-dione.

H460 cells [3] = test: Intracellular concentration of 2-acetylnaphtho[2,3-b]furan-4,9-dione with a metabolic inhibitor, H460; format: cell-based, human; conditions: 1.0 μmol/L dione with 30 or 100 μmol/L inhibitor, 2 hours (FIG. 11)
Description: as §1

A549 cells [4] = test: Cytotoxic effect (cell survival rate, Prest Blue), A549; format: cell-based, human; conditions: single agent treatment with 1.3 μmol/L, 6 hours (FIG. 12)
Description: (§2) A549 cells or H460 cells were seeded onto a 96-well culture plate (Corning) at 2×10^4/well, and then cultured at 37° C. under 5% carbon dioxide atmosphere in an incubator for 48 hours. […] After which, they were cultured in the presence or absence of a test compound (30 μmol/L of flufenamic acid, 100 μmol/L of flufenamic acid, or 100 μmol/L of mefenamic acid as a final concentration) for 6 hours, Prest Blue (Life Technologies) was added, and then incubated for 1 to 2 hours. After the incubation, absorbance at 570 nm was measured to evaluate the cytotoxicity. Absorbance of a well to which a cell had not been added (Ablank) is defined as the background, the cell survival rate was calculated using the following formula to divide a value obtained by multiplying 100 by a value obtained by subtracting the background absorbance from the absorbance of each well (Asample), by a value obtained by subtracting Ablank from the value (Acontrol) of a well in which a cell with no treatment with 2-acetylnaphtho[2,3-b]furan-4,9-dione or a metabolic inhibitor was contained.
(§3) Cell survival rate (%)=(Asample−Ablank)×100/(Acontrol−Ablank)

[5] = Metabolism measurement of 2-acetylnaphtho[2,3-b]furan-4,9-dione in human liver cytosol fractions; format: in vitro ADME; conditions: [14C]-labeled compound 0.5 μmol/L, human liver cytosol 0.1 mg/mL, 37° C. (FIG. 7)
Description: A reaction solution obtained by dissolving a human liver cytosol (0.1 mg/mL) and NADPH (1 mmol/L) in a phosphate buffer solution was prepared. Into the reaction solution, [^14C]-labeled labeled 2-acetylnaphtho[2,3-b]furan-4,9-dione was added such that the dione concentration is 0.5 μmol/L, and thereby the reaction was started. After incubation at 37° C. for a given time, 0.1% formic acid-containing acetonitrile was added to terminate the reaction, and the mixture was centrifuged. After the supernatant was evaporated to dryness under a stream nitrogen gas, re-dissolving solvent [10 mmol/L ammonium acetate:acetonitrile, 9:1 (v/v)] was used to re-dissolve it, and then Radio-HPLC was used to measure radioactivity.

H460 cells [6] = test: Cytotoxic effect (cell survival rate, Prest Blue), H460; format: cell-based, human; conditions: single agent treatment with 1.3 μmol/L, 6 hours (FIG. 12)
Description: as §2, §3

[7] = Concentration in plasma by combination with sulindac in cancer-bearing mice; format: in vivo, mouse; conditions: oral single dose, 100 mg/kg dione with 25 mg/kg sulindac, two hours after administration (FIG. 14)
Description: The following administration solution (1) or (2) was orally administered to 8 week aged mice (BALB/cAnNCrlCrlj, female, Charles River Laboratories Japan, Inc.) in a single time. […] Methanol was added to the plasma such that the final concentration of methanol is 80%, and then it was centrifuged.

A549 cells [8] = test: Anti-tumor effect in A549 tumor-bearing mice (tumor volume); format: in vivo, mouse; conditions: tumor volume (FIG. 15)
Description: A549 cells of 5×10^6 per individual were transplanted to a right belly part of a 5 week aged mouse (BALB/cAnNCrlCrlj, male, Charles River Laboratories Japan, Inc.). After one week, the following administration solution (1), (2), (3), (4) or (5) was orally administered in a single time. (1) 100 mg/kg of mefenamic acid (2) 30 mg/kg of 2-acetylnaphtho[2,3-b]furan-4,9-dione (3) 100 mg/kg of 2-acetylnaphtho[2,3-b]furan-4,9-dione (4) 30 mg/kg of 2-acetylnaphtho[2,3-b]furan-4,9-dione and 100 mg/kg of mefenamic acid (5) 100 mg/kg of 2-acetylnaphtho[2,3-b]furan-4,9-dione and 100 mg/kg of mefenamic acid According to a schedule in which an administration solution or an administration solution without an agent was continuously administered for five days and then medication was ceased for two days and continuous administration for five days was carried out again, it was orally administered one time a day. The major axis and the minor axis of a tumor mass were measured by vernier calipers at 2 to 5 day intervals, and the tumor volume was calculated by substituting them into the formula: (minor axis)^2×(major axis)/2.

[9] = Concentration in plasma and tumor by combination with mefenamic acid in tumor-bearing mice; format: in vivo, mouse; conditions: oral single dose
Description: The following administration solution (1), (2) or (3) was orally administered to 7 week aged mice (BALB/cAnNCrlCrlj, female, Charles River Laboratories Japan, Inc.) in a single time.
(1) 100 mg/kg of 2-acetylnaphtho[2,3-b]furan-4,9-dione
(2) 100 mg/kg of 2-acetylnaphtho[2,3-b]furan-4,9-dione and 100 mg/kg of mefenamic acid
(3) 100 mg/kg of 2-acetylnaphtho[2,3-b]furan-4,9-dione and 300 mg/kg of mefenamic acid
The blood was collected 2, 6, and 16 hours after the administration, and the blood was centrifuged to give plasma. Methanol was added to the plasma such that the final concentration of methanol is 80%, and then it was centrifuged. Further, protein-removing treatment was carried out by filtering through a filter, and then 2-acetylnaphtho[2,3-b]furan-4,9-dione was detected and quantified using LC-MS/MS (API4000, AB SCIEX). Meanwhile, a tumor mass was collected at the same time as the blood collection, 2-acetylnaphtho[2,3-b]furan-4,9-dione in the tumor was detected and quantified.

[10] = test system: metabolism of 2-acetylnaphtho[2,3-b]furan-4,9-dione in human liver cytosol (AKR and CR); test: Identification of a metabolic enzyme of 2-acetylnaphtho[2,3-b]furan-4,9-dione (CR/AKR inhibitors in human liver cytosol); format: biochemical; conditions: AKR inhibitor 1.0 μmol/L or 10 μmol/L, 5 minutes (FIG. 8)
Description: To a reaction solution obtained by dissolving a human liver cytosol (0.1 mg/mL) and NADPH (1 mmol/L) in a phosphate buffer solution, quercitrin (10 μmol/L or 100 μmol/L), which is a CR inhibitor, and phenolphthalein or medroxyprogesterone 17-acetate (1.0 μmol/L or 10 μmol/L), which is an AKR inhibitor, were added. Further, [^14C]-labeled 2-acetylnaphtho[2,3-b]furan-4,9-dione was added to the reaction solution such that the dione concentration is 0.5 μmol/L. After incubation at 37° C. for 5 minutes, Radio-HPLC was used to measure radioactivity.

Row | Structure (SMILES) | inhibition of the metabolism of 2-acetylnaphtho[2,3-b]furan-4,9-dione (residual amount vs control) [1] | other results
1 | CCc1oc2ccccc2c1C(=O)c1cc(Br)c(O)c(Br)c1 [benzbromarone] | inhibited | 
2 | C[C@H]1C[C@H]2[C@@H]3CCC4=CC(=O)C=C[C@]4(C)[C@@]3(F)[C@@H](O)C[C@]2(C)[C@@]1(O)C(=O)CCl [clobetasol] | inhibited | 
3 | O=C(O)c1ccccc1Nc1cccc(C(F)(F)F)c1 [flufenamic acid] | inhibited | intracellular concentration of 2-acetylnaphtho[2,3-b]furan-4,9-dione in the presence of the metabolic inhibitor (A549 cells [2]): increased; intracellular concentration of 2-acetylnaphtho[2,3-b]furan-4,9-dione in the presence of the metabolic inhibitor (H460 cells [3]): increased
4 | CCCCc1nc(Cl)c(CO)n1Cc1ccc(-c2ccccc2-c2nn[nH]n2)cc1 [losartan] | inhibited | 
5 | COc1ccc(Cl)cc1C(=O)NCCc1ccc(S(=O)(=O)NC(=O)NC2CCCCC2)cc1 [glibenclamide] | inhibited | 
6 | CC(C(O)c1ccc(O)cc1)N1CCC(Cc2ccccc2)CC1 (centres unmarked) [ifenprodil] | inhibited | 
7 | CN(C)CCCN1c2ccccc2Sc2ccc(Cl)cc21 [chlorpromazine] | inhibited | 
8 | OCc1cc(C(O)CNCCCCCCOCCCCc2ccccc2)ccc1O (centres unmarked) [salmeterol] | inhibited | 
9 | CC(=O)c1cc2c(o1)C(=O)c1ccccc1C2=O [2-acetylnaphtho[2,3-b]furan-4,9-dione] |  | cell survival rate (A549 cells [4]): ≥ 100%; metabolism in liver cytosol ([5]; NADPH 1 mmol/L): time-dependently metabolized; metabolite mainly produced in liver cytosol ([5]; NADPH): 2-(1-hydroxyethyl)naphtho[2,3-b]furan-4,9-dione (M1); cell survival rate (H460 cells [6]): ≥ 100%
10 | CC(=O)N1CCN(c2ccc(OCC3COC(Cn4ccnc4)(c4ccc(Cl)cc4Cl)O3)cc2)CC1 (centres unmarked) [ketoconazole] | inhibited | 
11 | CCC1=C(C)CN(C(=O)NCCc2ccc(S(=O)(=O)NC(=O)N[C@H]3CC[C@H](C)CC3)cc2)C1=O [glimepiride] | inhibited | 
12 | C#C[C@]1(O)CC[C@H]2[C@@H]3CCc4cc(O)ccc4[C@H]3CC[C@@]21C [ethynyl estradiol] | inhibited | 
13 | CC1=C(CC(=O)O)c2cc(F)ccc2/C1=C\c1ccc([S+](C)[O-])cc1 (centres unmarked) [sulindac] | inhibited | concentration of 2-acetylnaphtho[2,3-b]furan-4,9-dione in plasma, combination vs single agent administration [7]: higher
14 | Nc1ccc(S(=O)(=O)c2ccc(N)cc2)cc1 [dapsone] | inhibited | 
15 | Cc1cccc(Nc2ccccc2C(=O)O)c1C [mefenamic acid] | inhibited | anti-tumor activity as a single agent (A549 cells [8]; 100 mg/kg oral once a day, 5 days on/2 off/5 on): no anti-tumor activity; anti-tumor activity of the combination with 2-acetylnaphtho[2,3-b]furan-4,9-dione vs the dione as a single agent (A549 cells [8]; 30 or 100 mg/kg dione and 100 mg/kg mefenamic acid oral once a day): significantly improved; intracellular concentration of 2-acetylnaphtho[2,3-b]furan-4,9-dione in the presence of the metabolic inhibitor (A549 cells [2]): increased; intracellular concentration of 2-acetylnaphtho[2,3-b]furan-4,9-dione in the presence of the metabolic inhibitor (H460 cells [3]): increased; concentration of 2-acetylnaphtho[2,3-b]furan-4,9-dione in tumor, combination vs single agent group ([9]; 100 mg/kg dione with 300 mg/kg of mefenamic acid (FIG. 13)): higher; concentration of 2-acetylnaphtho[2,3-b]furan-4,9-dione in plasma, combination vs single agent administration ([9]; 100 mg/kg dione with 100 or 300 mg/kg mefenamic acid, 2, 6, 16 hours (FIG. 13)): higher
16 | CC1CC2C3CCC4=CC(=O)C=CC4(C)C3(F)C(=O)CC2(C)C1(O)C(=O)CCl (centres unmarked) [clobetasone] | inhibited | 
17 | Cc1ccc(Cl)c(Nc2ccccc2C(=O)O)c1Cl [meclofenamic acid] | inhibited | 
18 | CC(=O)c1ccc(S(=O)(=O)NC(=O)NC2CCCCC2)cc1 [acetohexamide] | inhibited | 
19 | CC(=O)O[C@]1(C(C)=O)CC[C@H]2[C@@H]3C[C@H](C)C4=CC(=O)CC[C@]4(C)[C@H]3CC[C@@]21C [medroxyprogesterone 17-acetate] |  | inhibition of the metabolism of 2-acetylnaphtho[2,3-b]furan-4,9-dione [10]: more strongly inhibited than quercitrin
20 | O=C1OC(c2ccc(O)cc2)(c2ccc(O)cc2)c2ccccc21 [phenolphthalein] |  | inhibition of the metabolism of 2-acetylnaphtho[2,3-b]furan-4,9-dione [10]: more strongly inhibited than quercitrin
